Publication PMC5532363, “Synergistic blending of high-valued heterocycles inhibits growth of Plasmodium falciparum in culture and P. berghei infection in mouse model” (Scientific Reports, 2017)
Like-named read-outs stand apart in the source and are kept apart here.

Legend:
[1] = system: P. falciparum 3D7 (Pf3D7), CQ sensitive; experiment: SYBR Green I growth inhibition assay, asynchronous P. falciparum 3D7 culture; format: cell-based, Plasmodium falciparum; details: SYBR Green, mean of three experiments, NDR / No IC50 = no dose response
Text: (§1) Antimalarial activity of all the listed Pht analogues was initially assessed on asynchronous cultures of P. falciparum 3D7 (Pf3D7) clone using the SYBR Green assay. […] The mean IC50 values are based on three separate experiments (Table 1).
(§2) The laboratory-adapted P. falciparum strains 3D7 (Africa; CQ sensitive) and W2 (Africa; CQ resistant), were acquired from Malaria Research and Reference Reagent Resource Center (MR4) (Manassas, VA, USA) and maintained with type O +ve erythrocytes suspended in continuous complete culture medium as described. Complete culture media consisted of 10.43 g/litre of RPMI 1640-HEPES supplemented with 10% (vol/vol) human AB serum, 92.6 mg/litre L-glutamine, 50 mg/liter hypoxanthine, 2 g/litre sodium bicarbonate (Sigma-Aldrich, St. Louis, MO). Incubation of cultures was at 37 °C and maintained in a low oxygen atmosphere (5% O2, 5% CO2, 90% N). The levels of parasitemia in the cultures were maintained at between 2 and 10%, with 5% hematocrit. Media was changed after every 24 hours and parasitemia monitored every 48 hours. Synchronous cultures were prepared by sorbitol lysis. Stock solutions of the Pht, Pht analogues, and DHA were prepared in absolute dimethyl sulfoxide (DMSO) while CQ was prepared in distilled water. The prepared drug stock solutions were used immediately or stored at −80 °C for not longer than one month before use. Stock solutions were further diluted in serum free RPMI 1640 media (stock solution solvent final conc. 0.05%) before performing a 2-fold serial dilution to achieve dose ranges of 0.2 µM to 100 µM (Pht and derivatives), 7.8 to 2,000 nM (CQ) and 0.17 to 87.5 nM (DHA). 25 μL of the drug diluents were aliquoted into 96 well plates and used immediately. Alternatively, the stock solutions were diluted in distilled water, 2-fold serial dilution performed on a 96 well plate and allowed to air dry in a laminar flow hood after which dried plates were stored at 4 °C until use. SYBR Green I assay technique with additional modification was used for drug susceptibility testing of the parasites. Parasite cultures of >1% parasitemia were diluted to 1% parasitemia and 2% hematocrit and 200 μL were transferred onto drug pre-dosed plates and incubated at 37 °C for 90 hours, [40]. Drug exposure was terminated by freezing the drug plates at −80 °C for 24 hours after which lysis buffer containing (per liter) 100 mM Tris-HCl, 10 mM EDTA, 0.016% Saponin, 1.6% triton X-100 and 20X SYBR Green I dye was added and the sample incubated for 2 hours in the dark. Relative fluorescence units (RFU) were read using the Perkin Elmer Wallac 1420 fluorescence plate reader, with excitation and emission wavelengths of 485 nm and 535 nm respectively. The readouts values were aligned with corresponding drug doses and analysis performed by Graph-pad Prism software. The drug concentrations (x value) were transformed using X = Log[X] and plotted against the counts (y values) and the data analysed by non-linear regression (sigmoid dose-response/variable slope equation) to yield the IC50.

[2] = system: CQ resistant PfW2 strain; experiment: SYBR Green I growth inhibition assay, P. falciparum W2 culture; format: cell-based; details: Plasmodium falciparum
Text: as §1
as §2, with “Drug exposure was terminated by freezing the drug plates at −80 °C for 24 hours after which lysis buffer containing (per liter) 100 mM Tris-HCl, 10 mM EDTA, 0.016% Saponin, 1.6% triton X-100 and 20X SYBR Green I dye was added and the sample incubated for 2 hours in the dark.” left out

[3] = system: synchronized Pf3D7 strain cultures (rings, trophozoites); experiment: Stage-specificity and parasitemia titres on synchronized Pf3D7 cultures (Giemsa smears); format: cell-based, Plasmodium falciparum; details: for effect on ring stage parasitemia: 6 hours post exposure of ring stages; for effect on ring stage parasitemia / effect on mature blood stage parasite titres (parasitemia): Fig. 5; for effect on mature blood stage parasite titres (parasitemia): 16 hours after incubation with trophozoite stage; for effect on progression from trophozoites to schizonts / schizont morphology: concentration = individual IC50, up to 16 hours exposure; for effect on ring-stage growth and morphology: newly synchronized rings, concentration = individual IC50, monitored at 6 and 12 hours
Protocol: Next, we sought to determine stage-specificity of the antiplasmodial activity of the four active analogues (6a, 6h, 6m and 6u) on synchronized Pf3D7 strain cultures at 2% hematocrit and 1% parasitemia, with concentrations corresponding to individual drug IC50. To determine the effect of the compounds on both early and late ring stage parasites, the treatment was conducted on newly synchronized rings for 12 hours, and drug effect on parasite growth and morphology was monitored at 6 and 12 hours after exposure. Similarly, early trophozoites were exposed to each compound and incubated for 16 hours, and monitored at 6 and 16 hours post-exposure. The effect of the compounds on parasite morphology and development was compared in exposed and unexposed drug wells (Figs 3 and 4).
Figure 5 Effect of Pht analogues on parasite growth titres (Note: Graphical description of the inhibitory effect of select analogues on parasite growth titres 6 hours after incubation with ring-stages and 16 hours after drug incubation with trophozoite stage. Parasitemia percentage was derived by counting the number of infected erythrocytes from a total of 2,000 erythrocytes on Giemsa stained thin smears from each experiment. Bar diagrams represent the average of three different experiments).

[4] = system: P. falciparum 3D7; experiment: Fixed-ratio isobologram drug interaction assay with CQ/DHA, 3D7; format: cell-based, Plasmodium falciparum; details: Pf3D7
Protocol: (§3) A modified fixed-ratio isobologram method was used to assess interaction between CQ/DHA and Pht analogues. Briefly, a total of 5 solutions containing fixed-ratio mixtures of Pht derivatives with either CQ or DHA were prepared in the following ratios: 1:1, 2:1, 3:2, 2:3, and 1:4. The starting concentrations for ten 2 fold-serial dilutions across the microtiter plate were assigned so that the IC50 of each drug would be in the 5th serial dilution of the plate. Each drug was tested alone and at fixed ratios of its IC50. The assessment of drug interaction was based on the calculation of the fractional inhibitory concentration (FIC) of two drugs in the […]. FIC was calculated for each association by dividing the IC50 of the drug in the combination by the IC50 of the drug alone.

[5] = system: P. falciparum W2; experiment: Fixed-ratio isobologram drug interaction assay with CQ/DHA, W2; format: cell-based, Plasmodium falciparum; details: PfW2
Protocol: as §3

[6] = MTT cytotoxicity assay in U937 cells; format: cell-based; details: human; for selectivity ratio at 24 h: U937 cells (CC50) versus 3D7 parasites (IC50), CC50 U937 / IC50 3D7, SI > 2 = low cytotoxicity, read-out: selectivity index (SI); for CC50 at 24 h: U937 cells, MTT
Protocol: As a final step in the investigational pipeline, we determined the cytotoxic effect of the four active analogues (6a, 6h, 6m and 6u) in U937 cell lines by measuring 50% cytotoxic concentrations (CC50) and calculating selectivity indices (SIs) as a measure of toxicity in human cells.
Cytotoxicity of the 4 select Pht compounds on human cells was evaluated by assessing cell viability of the U937, a human acute monocyte leukemia cell lines by use of the MTT assay. U937 was acquired from American Type Culture Collection (ATCC, Rockville, MD) and maintained in RPMI 1640 medium supplemented with 10% fetal bovine serum, and Penicillin-streptomycin (1% v/v) (Gibco, UK) at 37 °C. Robust U937 cells at a concentration of 80,000 cells/ml were plated into 96-well plates and incubated for 24 hours. Six concentrations of the Pht compounds were added in a two-fold dilution from starting concentration of 50 to 1.56 µM in triplicate and incubated with the cells for 24 hours. This was followed by addition of 10 µL MTT solution (5 mg/mL) into each well, incubated for 4 hour at 37 °C followed by addition of 50 µL DMSO to dissolve the formazan precipitate according to manufacturer’s protocol. Aliquots were drawn from each well and color intensity was measured spectrophotometrically in an ELISA plate reader (Biotek, ELx800) at 540 nm. The cell viability ratio was calculated by the following formula: % cytotoxicity = [Mean OD of test cells] − [Mean OD of control cells]/[Mean OD of control cells] × 100. Viability counts were then plotted against corresponding drug concentrations to yield cytotoxicity (CC50) through non-linear regression (sigmoid dose-response/variable slope equation). Drug CC50 values were then used to define selectivity indices, which is a measure of drug safety in human relative to parasitic cells and was calculated as the ratio of the CC50 value determined on the U937 cells (cytotoxicity) and the IC50 value determined on parasite growth inhibition 3D7 (anti-plasmodial activity). In this study, we set SI > 2 as cut-off as an indicative of low drug cytotoxicity.

[7] = Plasmodium falciparum, 3D7, Pf3D7, asynchronous culture, read-out: IC50 (SE) µg/mL

Row | Structure (SMILES) | IC50 [1, 7] [µg/mL] | IC50 [2] [µM] | effect on ring stage parasitemia [3] | effect on mature blood stage parasite titres (parasitemia) [3] | effect on progression from trophozoites to schizonts / schizont morphology ([3]; early trophozoites) | effect on ring-stage growth and morphology [3] | interaction when combined with CQ and DHA [4] | interaction when combined with CQ and DHA [5] | selectivity ratio at 24 h [6] | CC50 at 24 h [6] [µM] | IC50 ([1]; Pf3D7, asynchronous culture, read-out: IC50 (SE) µM) [µM] | IC50 ([1]; Plasmodium falciparum, 3D7, Pf3D7, asynchronous culture, read-out: IC50 (SE) µM) [µM] | effect on trophozoites ([3]; early trophozoites, concentration = individual IC50, 6 hours after exposure)
1 | CC(C)C[C@H](c1nc2ccccc2n1Cc1cn(-c2ccccc2)nn1)N1C(=O)c2ccccc2C1=O [Compound 6a] | 0.7 | 0.7 | reduction in ring stage parasitemia | negligible | did not interfere with development of parasite progression from trophozoites to schizonts | active against ring-stage forms | synergistic activity | synergistic activity | 1.01 ± 1.5 | 0.91 ± 0.32 |  |  | 
2 | CC(C)[C@H](c1nc2ccccc2n1Cc1cn(-c2ccc(F)cc2)nn1)N1C(=O)c2ccccc2C1=O [Compound 6m] | 1.8 | 3.8 | did not affect parasite growth | reduction in parasitemia | schizonts appeared less granular and lacked distinguishable merozoites | did not arrest ring-stage maturation |  |  | 1.11 ± 1.5 | 0.78 ± 0.32 | 3.5 | < 5.14 | trophozoite growth did not appear to be affected
